Columns and labels:
[1] = system: Porphyromonas gingivalis ATCC 3327; experiment: Challenge test of powder product, liquid product, xylitol and bicarbonate of soda (based on B.S.3286:1960), Example 4; format: cell-based; details: for Porphyromonas gingivalis ATCC 3327 Population Levels T = 0 / Porphyromonas gingivalis ATCC 3327 Population Levels T = 2 / Porphyromonas gingivalis ATCC 3327 Population Levels T = 1 / Porphyromonas gingivalis ATCC 3327 Population Levels T = 4 / Porphyromonas gingivalis ATCC 3327 Population Levels T = 3 / Porphyromonas gingivalis ATCC 3327 Population Levels T = 6 / Porphyromonas gingivalis ATCC 3327 Population Levels T = 5 / Porphyromonas gingivalis ATCC 3327 Population Levels T = 8 / Porphyromonas gingivalis ATCC 3327 Population Levels T = 7: Table 7; for Porphyromonas gingivalis ATCC 3327 Population Levels T = 0: Day 0, powders 1:5, liquid neat; for Porphyromonas gingivalis ATCC 3327 Population Levels T = 2: Day 1, 2 hrs after 10 mls of fresh sol'n added; for Porphyromonas gingivalis ATCC 3327 Population Levels T = 1: Day 1, prior to 10 mls of fresh sol'n added; for Porphyromonas gingivalis ATCC 3327 Population Levels T = 4: Day 2, 2 hrs after 10 mls of fresh sol'n added; for Porphyromonas gingivalis ATCC 3327 Population Levels T = 3: Day 2, prior to 10 mls of fresh sol'n added; for Porphyromonas gingivalis ATCC 3327 Population Levels T = 6: Day 3, 2 hrs after 10 mls of fresh sol'n added; for Porphyromonas gingivalis ATCC 3327 Population Levels T = 5: Day 3, prior to 10 mls of fresh sol'n added; for Porphyromonas gingivalis ATCC 3327 Population Levels T = 8: Day 4, 2 hrs after 10 mls of fresh sol'n added; for Porphyromonas gingivalis ATCC 3327 Population Levels T = 7: Day 4, prior to 10 mls of fresh sol'n added; for effect against the Porphyromonas gingivalis population (in words): controlled laboratory test
Procedure: (§1) The powder product and the liquid product were challenge tested against the organisms Streptococcus mutans and Porphyromonas gingivalis. […] The challenge method used was based on B.S.3286: 1960 “Method for Laboratory Evaluation of Disinfectant Activity of Quaternary Ammonium Compounds by Suspension Test Procedure”. This standard describes a test procedure for the laboratory evaluation of the activity of disinfectants, in which a suspension of viable microorganisms is added to solutions containing a pre-determined concentration of the disinfectant and the numbers of organisms surviving after a period of time is determined. A 1:5 solution of the powders with sterile deionised water was used for the challenge testing. The liquid product was used neat. The following organisms were used for the challenge testing: […] A modification will be made to the method by the addition of 10 ml of each solution each day, for 4 days. (The blank solution would have 10 ml of Neutralising buffer added.) […]

[2] = system: Streptococcus mutans ATCC 25175; experiment: as above; format: cell-based; details: for Streptococcus mutans ATCC 25175 Population Levels T = 0: Day 0, powders 1:5, liquid neat; for Streptococcus mutans ATCC 25175 Population Levels T = 2: Day 1, 2 hrs after 10 mls of fresh sol'n added; for Streptococcus mutans ATCC 25175 Population Levels T = 1: Day 1, prior to 10 mls of fresh sol'n added; for Streptococcus mutans ATCC 25175 Population Levels T = 4: Day 2, 2 hrs after 10 mls of fresh sol'n added; for Streptococcus mutans ATCC 25175 Population Levels T = 3: Day 2, prior to 10 mls of fresh sol'n added; for Streptococcus mutans ATCC 25175 Population Levels T = 6: Day 3, 2 hrs after 10 mls of fresh sol'n added; for Streptococcus mutans ATCC 25175 Population Levels T = 5: Day 3, prior to 10 mls of fresh sol'n added; for Streptococcus mutans ATCC 25175 Population Levels T = 8: Day 4, 2 hrs after 10 mls of fresh sol'n added; for Streptococcus mutans ATCC 25175 Population Levels T = 7: Day 4, prior to 10 mls of fresh sol'n added
Procedure: as §1

| Compound | Porphyromonas gingivalis ATCC 3327 Population Levels T = 0 [1] | Porphyromonas gingivalis ATCC 3327 Population Levels T = 2 [1] | Porphyromonas gingivalis ATCC 3327 Population Levels T = 1 [1] | Porphyromonas gingivalis ATCC 3327 Population Levels T = 4 [1] | Porphyromonas gingivalis ATCC 3327 Population Levels T = 3 [1] | Porphyromonas gingivalis ATCC 3327 Population Levels T = 6 [1] | Porphyromonas gingivalis ATCC 3327 Population Levels T = 5 [1] | Porphyromonas gingivalis ATCC 3327 Population Levels T = 8 [1] | Porphyromonas gingivalis ATCC 3327 Population Levels T = 7 [1] | effect against the Porphyromonas gingivalis population (in words) [1] | Streptococcus mutans ATCC 25175 Population Levels T = 0 [2] | Streptococcus mutans ATCC 25175 Population Levels T = 2 [2] | Streptococcus mutans ATCC 25175 Population Levels T = 1 [2] | Streptococcus mutans ATCC 25175 Population Levels T = 4 [2] | Streptococcus mutans ATCC 25175 Population Levels T = 3 [2] | Streptococcus mutans ATCC 25175 Population Levels T = 6 [2] | Streptococcus mutans ATCC 25175 Population Levels T = 5 [2] | Streptococcus mutans ATCC 25175 Population Levels T = 8 [2] [cfu/ml] | Streptococcus mutans ATCC 25175 Population Levels T = 7 [2] | reduction in the Streptococcus mutans population ([2]; over the 5 days, Example 4) [log] |
| --- | --- | --- | --- | --- | --- | --- | --- | --- | --- | --- | --- | --- | --- | --- | --- | --- | --- | --- | --- | --- |
| OC[C@@H](O)[C@H](O)[C@@H](O)CO [Xylitol solution, Xylitol] | 2.6 × 10^6 cfu/ml | 1.9 × 10^3 cfu/ml | 9.1 × 10^3 cfu/ml | <10 cfu/ml | 20 cfu/ml | <10 cfu/ml | <10 cfu/ml | <10 cfu/ml | <10 cfu/ml | reasonably effective | 1.5 × 10^7 cfu/ml | 5.2 × 10^5 cfu/ml | 7.8 × 10^6 cfu/ml | 2.6 × 10^4 cfu/ml | 1.0 × 10^5 cfu/ml | 1.6 × 10^4 cfu/ml | 1.0 × 10^4 cfu/ml | <10 | 30 cfu/ml |  |
| O=C([O-])O.[Na+] [Bicarbonate of Soda solution, Sodium Bicarbonate] | 2.5 × 10^6 cfu/ml | 3.1 × 10^5 cfu/ml | 5.9 × 10^5 cfu/ml | 1.1 × 10^5 cfu/ml | 1.2 × 10^5 cfu/ml | 3.3 × 10^4 cfu/ml | 2.4 × 10^4 cfu/ml | 2.8 × 10^3 cfu/ml | 4.8 × 10^3 cfu/ml | did not appear to be effective on its own | 1.5 × 10^7 cfu/ml | 3.4 × 10^5 cfu/ml | 1.8 × 10^6 cfu/ml | 3.2 × 10^4 cfu/ml | 6.7 × 10^4 cfu/ml | 2.8 × 10^3 cfu/ml | 7.7 × 10^3 cfu/ml | 10 | 1.2 × 10^2 cfu/ml | 6 |

Source: patent US20140345648A1, “Oral Healthcare, Products and Methods Therefor” (OZOSPA HOLDINGS LIMITED, priority 2011, published 2014)
